ChEMBL document CHEMBL4507257, “Data for DCP probe ABT-100” (2021)

Assays:
[1] = biological target: 5-hydroxytryptamine receptor 6 (Homo sapiens) (UniProt P50406); conditions: Compound concentration 10.0 uM
[2] = biological target: Casein kinase I isoform gamma-2 (Homo sapiens) (UniProt P78368); conditions: Compound concentration 1000.0 nM
[3] = biological target: Platelet-derived growth factor receptor alpha (Homo sapiens) (UniProt P16234); conditions: Compound concentration 1000.0 nM
[4] = biological target: Cyclin-dependent kinase 13 (Homo sapiens) (UniProt Q14004); conditions: Compound concentration 1000.0 nM
[5] = system: Proto-oncogene tyrosine-protein kinase receptor Ret (Homo sapiens), P07949 [V804L]; conditions: Compound concentration 1000.0 nM
[6] = system: Epidermal growth factor receptor (Homo sapiens), P00533 [T790M]; conditions: Compound concentration 1000.0 nM
[7] = biological target: Ankyrin repeat and protein kinase domain-containing protein 1 (Homo sapiens) (UniProt Q8NFD2); conditions: Compound concentration 1000.0 nM
[8] = biological target: Serine/threonine-protein kinase NLK (Homo sapiens) (UniProt Q9UBE8); conditions: Compound concentration 1000.0 nM
[9] = biological target: 5'-AMP-activated protein kinase catalytic subunit alpha-2 (Homo sapiens) (UniProt P54646); conditions: Compound concentration 1000.0 nM
[10] = biological target: Rho-associated protein kinase 2 (Homo sapiens) (UniProt O75116); conditions: Compound concentration 1000.0 nM
[11] = system: Fibroblast growth factor receptor 3 (Homo sapiens), P22607 [G697C]; conditions: Compound concentration 1000.0 nM
[12] = biological target: Serine/threonine-protein kinase WNK1 (Homo sapiens) (UniProt Q9H4A3); conditions: Compound concentration 1000.0 nM
[13] = system: Receptor-type tyrosine-protein kinase FLT3 (Homo sapiens), P36888 [R834Q]; conditions: Compound concentration 1000.0 nM
[14] = biological target: Calcium/calmodulin-dependent protein kinase type 1 (Homo sapiens) (UniProt Q14012); conditions: Compound concentration 1000.0 nM
[15] = biological target: Tyrosine-protein kinase Srms (Homo sapiens) (UniProt Q9H3Y6); conditions: Compound concentration 1000.0 nM
[16] = biological target: Sodium-dependent noradrenaline transporter (Homo sapiens) (UniProt P23975); conditions: Compound concentration 10.0 uM
[17] = biological target: Mitogen-activated protein kinase 9 (Homo sapiens) (UniProt P45984); conditions: Compound concentration 1000.0 nM
[18] = biological target: Tyrosine-protein kinase JAK1 (Homo sapiens) (UniProt P23458); conditions: Compound concentration 1000.0 nM
[19] = biological target: Tyrosine-protein kinase JAK3 (Homo sapiens) (UniProt P52333); conditions: Compound concentration 1000.0 nM
[20] = biological target: Mitogen-activated protein kinase kinase kinase 1 (Homo sapiens) (UniProt Q13233); conditions: Compound concentration 1000.0 nM
[21] = biological target: Mitogen-activated protein kinase kinase kinase 13 (Homo sapiens) (UniProt O43283); conditions: Compound concentration 1000.0 nM
[22] = biological target: Serine/threonine-protein kinase BRSK2 (Homo sapiens) (UniProt Q8IWQ3); conditions: Compound concentration 1000.0 nM
[23] = biological target: Serine/threonine-protein kinase pim-2 (Homo sapiens) (UniProt Q9P1W9); conditions: Compound concentration 1000.0 nM
[24] = biological target: Serine/threonine-protein kinase MRCK beta (Homo sapiens) (UniProt Q9Y5S2); conditions: Compound concentration 1000.0 nM
[25] = biological target: Cytoplasmic tyrosine-protein kinase BMX (Homo sapiens) (UniProt P51813); conditions: Compound concentration 1000.0 nM
[26] = biological target: BDNF/NT-3 growth factors receptor (Homo sapiens) (UniProt Q16620); conditions: Compound concentration 1000.0 nM
[27] = biological target: Dual specificity tyrosine-phosphorylation-regulated kinase 1B (Homo sapiens) (UniProt Q9Y463); conditions: Compound concentration 1000.0 nM
[28] = biological target: Dual specificity protein kinase CLK2 (Homo sapiens) (UniProt P49760); conditions: Compound concentration 1000.0 nM
[29] = biological target: Mitogen-activated protein kinase kinase kinase 5 (Homo sapiens) (UniProt Q99683); conditions: Compound concentration 1000.0 nM
[30] = biological target: MAP kinase-activated protein kinase 2 (Homo sapiens) (UniProt P49137); conditions: Compound concentration 1000.0 nM
[31] = biological target: Tyrosine-protein kinase Fyn (Homo sapiens) (UniProt P06241); conditions: Compound concentration 1000.0 nM
[32] = biological target: Serine/threonine-protein kinase MARK2 (Homo sapiens) (UniProt Q7KZI7); conditions: Compound concentration 1000.0 nM
[33] = biological target: Tyrosine-protein kinase receptor TYRO3 (Homo sapiens) (UniProt Q06418); conditions: Compound concentration 1000.0 nM
[34] = system: Epidermal growth factor receptor (Homo sapiens), P00533 [UNDEFINED MUTATION]; conditions: Compound concentration 1000.0 nM
[35] = biological target: TRAF2 and NCK-interacting protein kinase (Homo sapiens) (UniProt Q9UKE5); conditions: Compound concentration 1000.0 nM
[36] = biological target: Uncharacterized serine/threonine-protein kinase SBK3 (Homo sapiens) (UniProt P0C264); conditions: Compound concentration 1000.0 nM
[37] = biological target: Receptor-interacting serine/threonine-protein kinase 1 (Homo sapiens) (UniProt Q13546); conditions: Compound concentration 1000.0 nM
[38] = biological target: Proto-oncogene tyrosine-protein kinase receptor Ret (Homo sapiens) (UniProt P07949); conditions: Compound concentration 1000.0 nM
[39] = biological target: Beta-adrenergic receptor kinase 1 (Homo sapiens) (UniProt P25098); conditions: Compound concentration 1000.0 nM
[40] = biological target: Activin receptor type-1 (Homo sapiens) (UniProt Q04771); conditions: Compound concentration 1000.0 nM
[41] = system: Receptor-type tyrosine-protein kinase FLT3 (Homo sapiens), P36888 [K663Q]; conditions: Compound concentration 1000.0 nM
[42] = biological target: Tyrosine-protein kinase Fgr (Homo sapiens) (UniProt P09769); conditions: Compound concentration 1000.0 nM
[43] = biological target: Fibroblast growth factor receptor 4 (Homo sapiens) (UniProt P22455); conditions: Compound concentration 1000.0 nM
[44] = biological target: Tyrosine-protein kinase Tec (Homo sapiens) (UniProt P42680); conditions: Compound concentration 1000.0 nM
[45] = biological target: Receptor-interacting serine/threonine-protein kinase 4 (Homo sapiens) (UniProt P57078); conditions: Compound concentration 1000.0 nM

Chain of Serine/threonine-protein kinase MRCK beta (Homo sapiens) (Q9Y5S2 whole entry): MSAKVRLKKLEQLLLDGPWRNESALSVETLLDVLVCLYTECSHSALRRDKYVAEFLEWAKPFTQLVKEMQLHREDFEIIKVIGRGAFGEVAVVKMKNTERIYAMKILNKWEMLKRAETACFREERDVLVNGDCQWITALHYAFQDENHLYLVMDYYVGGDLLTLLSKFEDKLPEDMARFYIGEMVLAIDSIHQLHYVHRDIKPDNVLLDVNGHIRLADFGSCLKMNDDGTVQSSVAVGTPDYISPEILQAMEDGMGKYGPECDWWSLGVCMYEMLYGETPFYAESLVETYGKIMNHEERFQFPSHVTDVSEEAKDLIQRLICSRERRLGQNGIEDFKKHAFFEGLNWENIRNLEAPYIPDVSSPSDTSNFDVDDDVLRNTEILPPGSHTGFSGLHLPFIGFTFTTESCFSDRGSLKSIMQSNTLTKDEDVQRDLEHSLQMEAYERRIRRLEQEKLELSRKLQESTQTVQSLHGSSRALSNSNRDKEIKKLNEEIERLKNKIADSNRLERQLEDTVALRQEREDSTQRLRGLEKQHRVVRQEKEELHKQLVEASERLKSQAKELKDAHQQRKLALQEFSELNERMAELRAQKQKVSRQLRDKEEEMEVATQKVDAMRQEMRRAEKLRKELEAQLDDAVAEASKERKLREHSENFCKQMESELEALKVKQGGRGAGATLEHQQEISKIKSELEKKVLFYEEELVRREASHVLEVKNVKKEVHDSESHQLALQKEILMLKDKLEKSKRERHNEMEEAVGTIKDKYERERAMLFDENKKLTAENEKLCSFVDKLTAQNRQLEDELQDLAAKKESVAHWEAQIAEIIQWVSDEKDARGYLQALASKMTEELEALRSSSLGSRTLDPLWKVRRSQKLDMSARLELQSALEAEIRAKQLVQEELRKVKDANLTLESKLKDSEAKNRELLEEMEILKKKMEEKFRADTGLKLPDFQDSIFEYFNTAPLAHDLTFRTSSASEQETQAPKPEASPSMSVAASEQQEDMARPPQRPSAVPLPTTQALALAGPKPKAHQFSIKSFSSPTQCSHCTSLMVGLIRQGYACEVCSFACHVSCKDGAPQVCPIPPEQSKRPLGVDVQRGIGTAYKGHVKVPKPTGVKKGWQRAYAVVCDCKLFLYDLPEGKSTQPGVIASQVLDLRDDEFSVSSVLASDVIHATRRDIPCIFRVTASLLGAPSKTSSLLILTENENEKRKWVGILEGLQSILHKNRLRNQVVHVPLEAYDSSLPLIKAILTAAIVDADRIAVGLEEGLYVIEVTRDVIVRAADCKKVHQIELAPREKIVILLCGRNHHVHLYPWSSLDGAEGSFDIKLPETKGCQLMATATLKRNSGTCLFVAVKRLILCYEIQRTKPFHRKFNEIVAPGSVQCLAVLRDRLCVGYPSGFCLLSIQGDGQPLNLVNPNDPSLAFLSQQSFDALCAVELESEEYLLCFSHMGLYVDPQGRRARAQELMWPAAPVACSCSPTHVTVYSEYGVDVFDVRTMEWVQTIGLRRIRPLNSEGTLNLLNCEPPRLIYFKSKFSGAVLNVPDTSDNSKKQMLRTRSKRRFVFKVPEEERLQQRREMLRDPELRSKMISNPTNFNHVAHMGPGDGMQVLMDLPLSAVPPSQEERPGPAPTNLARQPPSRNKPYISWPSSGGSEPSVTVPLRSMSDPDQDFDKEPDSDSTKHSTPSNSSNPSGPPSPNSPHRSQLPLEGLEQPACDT
Chain of Receptor-interacting serine/threonine-protein kinase 1 (Homo sapiens) (Q13546 whole entry): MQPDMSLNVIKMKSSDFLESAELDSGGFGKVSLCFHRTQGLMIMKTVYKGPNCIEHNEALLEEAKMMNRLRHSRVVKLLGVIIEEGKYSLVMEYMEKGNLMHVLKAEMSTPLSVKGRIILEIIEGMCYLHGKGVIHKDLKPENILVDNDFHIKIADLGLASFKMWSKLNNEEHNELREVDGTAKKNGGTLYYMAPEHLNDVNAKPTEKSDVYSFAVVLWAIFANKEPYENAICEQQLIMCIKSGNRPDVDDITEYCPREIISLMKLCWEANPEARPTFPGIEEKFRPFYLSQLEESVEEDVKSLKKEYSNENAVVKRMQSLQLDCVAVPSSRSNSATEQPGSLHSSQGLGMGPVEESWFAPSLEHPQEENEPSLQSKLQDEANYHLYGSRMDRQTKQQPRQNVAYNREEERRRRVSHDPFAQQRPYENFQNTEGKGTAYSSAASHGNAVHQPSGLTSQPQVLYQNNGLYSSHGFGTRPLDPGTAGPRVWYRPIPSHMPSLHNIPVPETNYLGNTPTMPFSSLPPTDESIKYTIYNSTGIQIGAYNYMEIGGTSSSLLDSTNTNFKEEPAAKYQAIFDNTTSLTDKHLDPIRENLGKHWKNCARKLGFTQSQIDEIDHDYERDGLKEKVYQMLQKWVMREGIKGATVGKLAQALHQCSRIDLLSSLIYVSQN
Chain of Mitogen-activated protein kinase kinase kinase 13 (Homo sapiens) (O43283 whole entry): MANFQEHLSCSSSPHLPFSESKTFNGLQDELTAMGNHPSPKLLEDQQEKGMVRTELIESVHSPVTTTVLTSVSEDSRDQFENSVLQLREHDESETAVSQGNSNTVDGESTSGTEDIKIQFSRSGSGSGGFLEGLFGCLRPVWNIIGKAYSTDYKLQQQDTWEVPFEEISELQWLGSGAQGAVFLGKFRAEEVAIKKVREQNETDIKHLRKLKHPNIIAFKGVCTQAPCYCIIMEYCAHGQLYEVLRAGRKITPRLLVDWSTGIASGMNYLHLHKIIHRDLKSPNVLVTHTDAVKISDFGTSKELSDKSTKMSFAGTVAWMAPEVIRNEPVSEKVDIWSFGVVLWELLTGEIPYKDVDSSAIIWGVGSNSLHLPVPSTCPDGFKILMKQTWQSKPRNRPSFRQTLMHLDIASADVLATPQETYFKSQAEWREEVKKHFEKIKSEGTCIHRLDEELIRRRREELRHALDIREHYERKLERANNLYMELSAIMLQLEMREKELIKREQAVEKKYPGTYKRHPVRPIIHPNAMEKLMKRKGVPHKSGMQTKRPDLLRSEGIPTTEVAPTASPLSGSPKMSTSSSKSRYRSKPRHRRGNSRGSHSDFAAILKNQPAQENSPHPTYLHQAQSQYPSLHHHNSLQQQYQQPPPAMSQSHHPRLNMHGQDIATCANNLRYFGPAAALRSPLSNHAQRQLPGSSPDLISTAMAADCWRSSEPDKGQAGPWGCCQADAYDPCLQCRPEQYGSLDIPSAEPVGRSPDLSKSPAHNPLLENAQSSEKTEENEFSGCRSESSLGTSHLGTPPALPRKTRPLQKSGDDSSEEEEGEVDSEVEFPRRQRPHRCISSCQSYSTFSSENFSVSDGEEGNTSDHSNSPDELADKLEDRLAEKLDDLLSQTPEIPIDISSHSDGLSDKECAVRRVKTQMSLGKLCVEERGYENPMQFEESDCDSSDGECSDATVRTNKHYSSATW
Chain of Tyrosine-protein kinase JAK3 (Homo sapiens) (P52333 whole entry): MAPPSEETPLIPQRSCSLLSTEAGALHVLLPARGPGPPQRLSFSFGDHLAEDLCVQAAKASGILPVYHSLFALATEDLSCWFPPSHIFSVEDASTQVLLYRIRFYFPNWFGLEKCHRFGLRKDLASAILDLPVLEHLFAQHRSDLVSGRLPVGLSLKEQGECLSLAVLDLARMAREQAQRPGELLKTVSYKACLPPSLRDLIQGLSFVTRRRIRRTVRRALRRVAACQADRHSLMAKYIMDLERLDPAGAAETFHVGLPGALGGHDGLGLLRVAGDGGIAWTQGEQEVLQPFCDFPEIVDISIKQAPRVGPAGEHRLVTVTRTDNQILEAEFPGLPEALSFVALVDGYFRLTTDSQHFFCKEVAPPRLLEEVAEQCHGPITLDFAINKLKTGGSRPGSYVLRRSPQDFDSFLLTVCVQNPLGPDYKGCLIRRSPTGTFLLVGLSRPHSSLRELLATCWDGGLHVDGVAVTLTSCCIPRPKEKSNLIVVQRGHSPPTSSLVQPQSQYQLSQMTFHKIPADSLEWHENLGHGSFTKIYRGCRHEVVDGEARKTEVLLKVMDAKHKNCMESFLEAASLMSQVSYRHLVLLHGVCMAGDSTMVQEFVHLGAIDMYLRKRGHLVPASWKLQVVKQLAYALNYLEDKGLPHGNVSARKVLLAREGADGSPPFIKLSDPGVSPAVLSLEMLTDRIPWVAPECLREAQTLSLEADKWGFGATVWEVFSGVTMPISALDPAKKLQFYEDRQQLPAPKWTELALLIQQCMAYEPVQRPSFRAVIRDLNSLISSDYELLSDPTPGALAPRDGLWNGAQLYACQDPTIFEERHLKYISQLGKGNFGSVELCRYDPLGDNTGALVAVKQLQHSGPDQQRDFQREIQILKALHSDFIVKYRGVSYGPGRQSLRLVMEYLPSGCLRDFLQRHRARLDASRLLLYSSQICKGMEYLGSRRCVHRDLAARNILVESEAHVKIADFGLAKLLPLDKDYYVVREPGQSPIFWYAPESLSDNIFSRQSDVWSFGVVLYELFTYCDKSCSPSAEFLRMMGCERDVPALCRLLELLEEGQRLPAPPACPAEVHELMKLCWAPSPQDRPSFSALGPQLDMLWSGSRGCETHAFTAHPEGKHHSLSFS
Chain of Tyrosine-protein kinase Fgr (Homo sapiens) (P09769 2-529 limits assumed): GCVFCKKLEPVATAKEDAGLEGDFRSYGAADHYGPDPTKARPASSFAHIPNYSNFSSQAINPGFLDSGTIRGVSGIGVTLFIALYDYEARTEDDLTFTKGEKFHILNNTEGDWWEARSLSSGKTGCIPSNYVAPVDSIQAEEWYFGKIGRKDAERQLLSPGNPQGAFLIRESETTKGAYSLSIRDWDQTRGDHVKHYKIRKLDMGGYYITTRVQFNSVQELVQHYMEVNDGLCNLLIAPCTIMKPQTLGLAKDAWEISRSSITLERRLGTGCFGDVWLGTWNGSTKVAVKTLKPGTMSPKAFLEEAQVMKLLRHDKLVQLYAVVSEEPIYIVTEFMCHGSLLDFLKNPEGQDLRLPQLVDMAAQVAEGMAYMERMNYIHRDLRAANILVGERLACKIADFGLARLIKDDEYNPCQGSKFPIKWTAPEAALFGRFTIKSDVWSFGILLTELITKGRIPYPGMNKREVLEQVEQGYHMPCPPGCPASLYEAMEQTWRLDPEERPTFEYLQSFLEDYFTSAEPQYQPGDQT

SMILES: Cn1cncc1[C@@](O)(COc1ccc(C#N)cc1-c1ccc(OC(F)(F)F)cc1)c1ccc(C#N)cc1 [A-108]
- inhibition [1]: 14.2%
- residual activity [2]: 64%
- residual activity [3]: 100%
- residual activity [4]: 87%
- residual activity [5]: 89%
- residual activity [6]: 68%
- residual activity [7]: 100%
- residual activity [8]: 100%
- residual activity [9]: 87%
- residual activity [10]: 100%
- residual activity [11]: 97%
- residual activity [12]: 100%
- residual activity [13]: 100%
- residual activity [14]: 100%
- residual activity [15]: 100%
- inhibition [16]: 5.18%
- residual activity [17]: 92%
- residual activity [18]: 100%
- residual activity [19]: 100%
- residual activity [20]: 100%
- residual activity [21]: 72%
- residual activity [22]: 100%
- residual activity [23]: 100%
- residual activity [24]: 95%
- residual activity [25]: 64%
- residual activity [26]: 88%
- residual activity [27]: 38%
- residual activity [28]: 90%
- residual activity [29]: 91%
- residual activity [30]: 61%
- residual activity [31]: 97%
- residual activity [32]: 100%
- residual activity [33]: 100%
- residual activity [34]: 100%
- residual activity [35]: 99%
- residual activity [36]: 92%
- residual activity [37]: 90%
- residual activity [38]: 100%
- residual activity [39]: 95%
- residual activity [40]: 100%
- residual activity [41]: 64%
- residual activity [42]: 100%
- residual activity [43]: 100%
- residual activity [44]: 100%
- residual activity [45]: 94%

SMILES: Cn1cncc1[C@](O)(COc1ccc(C#N)cc1-c1ccc(OC(F)(F)F)cc1)c1ccc(C#N)cc1 [ABT-100]
- inhibition [1]: 6.74%
- residual activity [2]: 78%
- residual activity [3]: 100%
- residual activity [4]: 67%
- residual activity [5]: 82%
- residual activity [6]: 100%
- residual activity [7]: 100%
- residual activity [8]: 89%
- residual activity [9]: 100%
- residual activity [10]: 94%
- residual activity [11]: 60%
- residual activity [12]: 100%
- residual activity [13]: 98%
- residual activity [14]: 99%
- residual activity [15]: 79%
- inhibition [16]: 21.7%
- residual activity [17]: 89%
- residual activity [18]: 59%
- residual activity [19]: 72%
- residual activity [20]: 90%
- residual activity [21]: 100%
- residual activity [22]: 48%
- residual activity [23]: 84%
- residual activity [24]: 76%
- residual activity [25]: 75%
- residual activity [26]: 92%
- residual activity [27]: 58%
- residual activity [28]: 87%
- residual activity [29]: 77%
- residual activity [30]: 63%
- residual activity [31]: 100%
- residual activity [32]: 95%
- residual activity [33]: 61%
- residual activity [34]: 78%
- residual activity [35]: 81%
- residual activity [36]: 100%
- residual activity [37]: 79%
- residual activity [38]: 94%
- residual activity [39]: 74%
- residual activity [40]: 78%
- residual activity [41]: 90%
- residual activity [42]: 100%
- residual activity [43]: 100%
- residual activity [44]: 93%
- residual activity [45]: 100%
